According to US20220281848A1, “PYRAZOLE-SUBSTITUTED PYRROLIDINONES AS HERBICIDES” (FMC Corporation, priority 2019, published 2022):

Experiments:
Format in all cases: in vivo
plants = assay: Test D post-emergence, other plants of Tables D2 and D4; details: post-emergence
Procedure, shortened: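 Seeds treated with herbicide safener; sown in soil; glasshouse, 16 h light, 65% humidity. Sprayed day 1 (pre) or ~day 12 (post). Spray in 0.2% v/v adjuvant. Scored 0–100 damage: 20 DAA pre, 15 d post.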

[1] = tested on: velvetleaf (Abutilon theophrasti, ABUTH); assay: Test A pre-emergence, velvetleaf; details: after 13 d
Procedure, shortened: (§1)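 Values are percent plant damage 13 d after a pre-emergence spray (15.625, 62.5 or 250 g/ha; acetone/water with 0.5% Tween 20) applied to pots one day post-sowing, under glasshouse conditions of 24/16° C. and twice-daily watering.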

corn (Zea mays, ZEAMX) = assay: Test A post-emergence, corn; details: after 13 d
Procedure, shortened: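 Foliar application to 8-day-old seedlings at 15.625, 62.5 or 250 g/ha; phytotoxicity scored 0–100 after 13 d.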

[2] = tested on: ivy-leaved morning glory (Ipomoea hederacea, IPOHE); assay: Test A pre-emergence, ivy-leaved morning glory; details: after 13 d
Procedure, shortened: as §1

[3] = tested on: barnyardgrass (Echinochloa crus-galli, ECHCG); assay: Test A pre-emergence, barnyardgrass; details: after 13 d
Procedure, shortened: as §1

Q: What does the source list for `CCn1nc([C@@H]2CN(C)C(=O)[C@H]2C(=O)Nc2cccc(F)c2F)c2cccc(F)c21` [Compound 14]?
A: damage to plant (100=total damage to plant; 0=no damage to plant), BRAPL (plants; rate 130, evaluated after 15 d): 80; damage to plant (100=total damage to plant; 0=no damage to plant), BRAPL (plants; rate 250, evaluated after 15 d): 70; damage to plant (100=total damage to plant; 0=no damage to plant), BRAPL (plants; rate 500, evaluated after 15 d): 80; damage to plant (100=total damage to plant; 0=no damage to plant), CYPES (plants; rate 130, evaluated after 15 d): 0; damage to plant (100=total damage to plant; 0=no damage to plant), CYPES (plants; rate 250, evaluated after 15 d): 0; damage to plant (100=total damage to plant; 0=no damage to plant), CYPES (plants; rate 500, evaluated after 15 d): 0; damage to plant (100=total damage to plant; 0=no damage to plant), DIGSA (plants; rate 130, evaluated after 15 d): 60; damage to plant (100=total damage to plant; 0=no damage to plant), DIGSA (plants; rate 250, evaluated after 15 d): 70; damage to plant (100=total damage to plant; 0=no damage to plant), DIGSA (plants; rate 500, evaluated after 15 d): 70; damage to plant (100=total damage to plant; 0=no damage to plant), ECHCG (plants; rate 250, evaluated after 15 d): 80; damage to plant (100=total damage to plant; 0=no damage to plant), ECHCG (plants; rate 500, evaluated after 15 d): 80; damage to plant (100=total damage to plant; 0=no damage to plant), ELEIN (plants; rate 130, evaluated after 15 d): 0; damage to plant (100=total damage to plant; 0=no damage to plant), ELEIN (plants; rate 250, evaluated after 15 d): 0; damage to plant (100=total damage to plant; 0=no damage to plant), ELEIN (plants; rate 500, evaluated after 15 d): 0; damage to plant (100=total damage to plant; 0=no damage to plant), EPHHL (plants; rate 130, evaluated after 15 d): 20; damage to plant (100=total damage to plant; 0=no damage to plant), EPHHL (plants; rate 250, evaluated after 15 d): 30; damage to plant (100=total damage to plant; 0=no damage to plant), EPHHL (plants; rate 500, evaluated after 15 d): 50; damage to plant (100=total damage to plant; 0=no damage to plant), GLXMA (plants; rate 130, evaluated after 15 d): 0; damage to plant (100=total damage to plant; 0=no damage to plant), GLXMA (plants; rate 250, evaluated after 15 d): 0; damage to plant (100=total damage to plant; 0=no damage to plant), GLXMA (plants; rate 500, evaluated after 15 d): 0; damage to plant (100=total damage to plant; 0=no damage to plant), IPOHE (plants; rate 130, evaluated after 15 d): 0; damage to plant (100=total damage to plant; 0=no damage to plant), IPOHE (plants; rate 250, evaluated after 15 d): 10; damage to plant (100=total damage to plant; 0=no damage to plant), IPOHE (plants; rate 500, evaluated after 15 d): 20; damage to plant (100=total damage to plant; 0=no damage to plant), ORYSA (plants; rate 130, evaluated after 15 d): 0; damage to plant (100=total damage to plant; 0=no damage to plant), ORYSA (plants; rate 250, evaluated after 15 d): 0; damage to plant (100=total damage to plant; 0=no damage to plant), ORYSA (plants; rate 500, evaluated after 15 d): 0; damage to plant (100=total damage to plant; 0=no damage to plant), PANMI (plants; rate 130, evaluated after 15 d): 0; damage to plant (100=total damage to plant; 0=no damage to plant), PANMI (plants; rate 250, evaluated after 15 d): 0; damage to plant (100=total damage to plant; 0=no damage to plant), PANMI (plants; rate 500, evaluated after 15 d): 0; damage to plant (100=total damage to plant; 0=no damage to plant), SETFA (plants; rate 130, evaluated after 15 d): 70; damage to plant (100=total damage to plant; 0=no damage to plant), SETFA (plants; rate 250, evaluated after 15 d): 70; damage to plant (100=total damage to plant; 0=no damage to plant), SETFA (plants; rate 500, evaluated after 15 d): 70; damage to plant (100=total damage to plant; 0=no damage to plant), SIDSP (plants; rate 130, evaluated after 15 d): 0; damage to plant (100=total damage to plant; 0=no damage to plant), SIDSP (plants; rate 250, evaluated after 15 d): 0; damage to plant (100=total damage to plant; 0=no damage to plant), SIDSP (plants; rate 500, evaluated after 15 d): 30; damage to plant (100=total damage to plant; 0=no damage to plant), SORVU (plants; rate 130, evaluated after 15 d): 0; damage to plant (100=total damage to plant; 0=no damage to plant), SORVU (plants; rate 250, evaluated after 15 d): 0; damage to plant (100=total damage to plant; 0=no damage to plant), SORVU (plants; rate 500, evaluated after 15 d): 20; damage to plant (100=total damage; 0=no damage) ABUTH ([1]; Pre-Emergence at 15.625 g/ha): 0; damage to plant (100=total damage; 0=no damage) ABUTH ([1]; Pre-Emergence at 62.5 g/ha): 0; damage to plant (100=total damage; 0=no damage) ABUTH ([1]; Pre-Emergence at 250 g/ha): 0; damage to plant (100=total damage; 0=no damage) ZEAMX (corn (Zea mays, ZEAMX); Post-Emergence at 15.625 g/ha): 70; damage to plant (100=total damage; 0=no damage) ZEAMX (corn (Zea mays, ZEAMX); Post-Emergence at 62.5 g/ha): 70; damage to plant (100=total damage; 0=no damage) ZEAMX (corn (Zea mays, ZEAMX); Post-Emergence at 250 g/ha): 80; damage to plant (100=total damage; 0=no damage) IPOHE ([2]; Pre-Emergence at 15.625 g/ha): 30; damage to plant (100=total damage; 0=no damage) IPOHE ([2]; Pre-Emergence at 62.5 g/ha): 40; damage to plant (100=total damage; 0=no damage) IPOHE ([2]; Pre-Emergence at 250 g/ha): 70; damage to plant (100=total damage; 0=no damage) ECHCG ([3]; Pre-Emergence at 15.625 g/ha): 60; damage to plant (100=total damage; 0=no damage) ECHCG ([3]; Pre-Emergence at 62.5 g/ha): 80; damage to plant (100=total damage; 0=no damage) ECHCG ([3]; Pre-Emergence at 250 g/ha): 90
